Test results published in patent US8637480B2, “Mitochondrial function-improving agent” (National University Corporation Kumamoto University, priority 2009, dated 2014).
d = 2'-deoxy (DNA); r = 2'-OH (RNA)

Experiments:
3T3-L1 cells = test: Mitochondrial biosynthesis in 3T3-L1 cells by JC-1 staining and flow cytometry; assay type: cell-based, mouse; conditions: tranylcypromine 10^−3 or 10^−4 M, flow cytometry
Procedure: For the measurement of mitochondrial biosynthesis, cells were stained with a fluorescent dye JC-1 (Molecular Probes), and they were then analyzed by flow cytometry. JC-1 binds to the mitochondrial inner membrane to emit green fluorescence, and forms a red fluorescent aggregate, depending on membrane potential. Accordingly, the amount of mitochondria can be evaluated by detecting the green fluorescence, whereas the amount of mitochondrial electron transport can be evaluated by detecting the red fluorescence. […] Subsequently, the cells were allowed to come into contact with 5 μg/ml JC-1 in a medium at 37° C. for 15 minutes, and they were then suspended in PBS, followed by FACS analysis. The green fluorescence and the red fluorescence were detected by FL1 and FL2 settings, respectively. The value indicates a mean fluorescence intensity in each setting.

[1] = system: LSD1 target genes such as PGC-1α in 3T3-L1 cells; conditions: 24 hours, 10^−4 M (clorgyline 10^−5 M)
Procedure: (12) Effects of Various Types of MAO Inhibitors on LSD1 Target Gene Group (FIG. 13)
Thereafter, RNA analysis was carried out. Expression analysis was carried out as described above. The expression level of PGC-1α or the like was standardized against the internal control gene 36B4. The value was given as a multiple of induction to a control treated with a vehicle.

[2] = system: LSD1 target genes including PGC-1α; conditions: high fat diet 6 weeks, 10 mg/kg intraperitoneally every other day, versus PBS
[3] = system: LSD1 target genes in 3T3-L1 cells; test: Comprehensive analysis of LSD1 target genes in 3T3-L1 cells using microarray; assay type: cell-based, mouse; conditions: for expression of the LSD1 target candidates (microarray): tranylcypromine 10^−4 M
Procedure: (1) Comprehensive Analysis of LSD1 Target Genes in 3T3-L1 Cells, Using Microarray (FIG. 1)
An adipogenesis induction medium was prepared by dissolving […] 3-isobutyl-1-methylxanthine, 1 μM dexamethasone and 5 μg/ml insulin in a Dulbecco's modified Eagle's medium containing 10% fetal bovine serum. Total RNA was extracted using RNeasy mini column (Qiagen). Using GeneChip Mouse Genome Array 430—2 in combination with GeneChip Hybridization, Wash and Stain Kit (Affymetrix), genome-wide expression analysis was carried out
Thereafter, RNA analysis was carried out as described above. Using GeneChip Mouse Genome Array 430—2 in combination with GeneChip Hybridization, Wash and Stain Kit (Affymetrix), genome-wide expression analysis was carried out.

[4] = system: mPGC-1α promoter (pGL3-PGC-1α reporter) in 3T3-L1 cells; test: PGC-1α promoter activity by luciferase assay; assay type: cell-based, mouse; conditions: adipose differentiation induced for 24 hours
Procedure: (4) Analysis of PGC-1α Promoter Activity by Luciferase Assay (FIG. 5)
In order to construct pGL3-PGC-1α (PGC-1α/Luc) that is a luciferase reporter vector containing an mPGC-1α promoter, a 3707 bps promoter fragment from −3627 to +80 was amplified by PCR, using primers containing a MluI site and a XhoI site at the 5′-terminus and 3′-terminus thereof, respectively. Luciferase assay was carried out using Dual-Luciferase Reporter Assay System (Promega) in accordance with protocols included therewith. 3T3-L1 cells were co-transfected with the pGL3-PGC-1α reporter vector and a pRL-TK reference vector, and adipose differentiation was induced in the presence or absence of TC for 24 hours. Thereafter, luciferase activity was measured. When siRNA was applied, it was introduced 24 hours before transfection with the reporter.

[5] = system: PGC-1α gene expression in 3T3-L1 cells; test: Expression analysis of PGC-1α gene and the like by quantitative real-time PCR; assay type: cell-based, mouse; conditions: standardized against 36B4, versus control siRNA or vehicle
Procedure: (2) Expression Analysis of PGC-1α gene and the Like by Quantitative Real-time PCR (FIG. 2)
Total RNA was extracted using Trizol reagent (Invitrogen). Quantitative RT-PCR was carried out using Fast SYBR Green System (Applied Biosciences). […] The value is given as a multiple of induction to a sample into which control siRNA has been introduced or a sample treated with a vehicle. Statistical significant difference is indicated by *p<0.05, **p<0.01, with respect to control (the same applies below). The following primers were used.

[6] = system: dimethylated H3K4 at LSD1 target gene promoters in 3T3-L1 cells; test: Chromatin immunoprecipitation (ChIP) assay for methylation of H3K4; assay type: cell-based, mouse
Procedure: (3) Chromatin Immunoprecipitation (ChIP) Assay for Detecting Methylation of 4th Lysine Residue of Histone H3 (H3K4) and Binding of LSD1 (FIG. 3 and FIG. 4)
A DNA-protein complex of 3T3-L1 cells was crosslinked using 1% formalin, and chromatin was then fragmented using a water tank ultrasonic processor. The chromatin fragments were incubated at 4° C. overnight in the presence of an antibody directed against methyl-H3K4, LSD1 or BHC80. Thereafter, the reaction product was recovered using agarose beads to which protein A and protein G had been bound. DNA was isolated, and real-time PCR was then carried out using the following primer set

FAD in 3T3-L1 cells = test: Amount of FAD in cells (FAD assay kit); assay type: cell-based, mouse; conditions: FAD synthesis inhibited
Procedure: (§1) Using Trizol reagent (Invitrogen), total RNA was extracted from 3T3-L1 cells in which siRNA against riboflavin kinase (RFK) or FAD synthase (FADS) had been introduced. […] Using FAD assay kit (BioVision), the amount of FAD in the cells was measured under inhibition of FAD synthesis.

[7] = system: LSD1 target genes such as PGC-1α in 3T3-L1 cells; test: Expression of LSD1 target genes under inhibition of enzymes associated with FAD synthesis (quantitative RT-PCR); assay type: cell-based, mouse; conditions: siRNA against FAD synthesis enzymes
Procedure: (8) Induction of Expression of LSD1 Target Genes by Inhibition of Enzyme Associated with FAD Synthesis (FIG. 9)
as §1

[8] = 3T3-L1 cells, 24 hours differentiation induction

Compound | amount of mitochondria (JC-1 green fluorescence, FL1) (3T3-L1 cells) | mitochondrial membrane potential (JC-1 red fluorescence, FL2) (3T3-L1 cells) | expression of the LSD1 target candidates (microarray) [3, 8] | expression of luciferase reporter gene downstream of the PGC-1α promoter [4] | expression of genes such as PGC-1α (quantitative RT-PCR) [5] | amount of dimethylated H3K4 in other LSD1 target gene promoters such as PDK4 [6] | amount of FAD in a cell (FAD in 3T3-L1 cells) | expression of LSD1 target genes such as PGC-1α [7] | other results
N[C@@H]1C[C@H]1c1ccccc1 (racemic) [tranylcypromine, reference compound] | stimulatory effect | stimulatory effect | induced | activated (disinhibited) | Induction of the expression | The same results were obtained |  |  | activation of LSD1 target genes such as PGC-1α compared with other MAO inhibitors [1]: significant activation; expression of LSD1 target genes including PGC-1α in fat around the testis [2]: increased; expression of LSD1 target genes including PGC-1α in the liver [2]: The same results as described above were obtained; amount of dimethylated H3K4 in PGC-1α promoter ([6]; under treatment): increase in the amount of dimethylated H3K4 was detected
BHC80 siRNA: siRNA against LSD1 coupling factor BHC80: sense SEQ ID NO: 31, antisense SEQ ID NO: 32 (sense GUUCCAGAUACAGCCAUUGTT; antisense CAAUGGCUGUAUCUGGAACTT; sugars from the 5' end r19 d2, backbone not given here) |  |  | induced |  | Induction of the expression |  |  |  | 
FADS siRNA: siRNA against FAD synthase: sense SEQ ID NO: 35, antisense SEQ ID NO: 36 (sense GAGCCCUUGGAGGAAUGUCTT; antisense GACAUUCCUCCAAGGGCUCTT; sugars from the 5' end r19 d2, backbone not given here) |  |  |  |  |  |  | decreased | activated | 
LSD1 siRNA: siRNA against LSD1: sense SEQ ID NO: 29, antisense SEQ ID NO: 30 (sense CACAAGGAAAGCUAGAAGATT; antisense UCUUCUAGCUUUCCUUGUGTT; sugars from the 5' end r19 d2, backbone not given here) | the same results were obtained | the same results were obtained |  | activated (disinhibited) | Induction of the expression | The same results were obtained |  |  | number of target candidates induced to a higher level (2-fold or more) ([3]; differentiating 3T3-L1 cells, 24 hours in differentiation induction medium, microarray): 601; amount of dimethylated H3K4 in PGC-1α gene promoter versus control [6]: approximately 2 fold
RFK siRNA: siRNA against riboflavin kinase: sense SEQ ID NO: 33, antisense SEQ ID NO: 34 (sense UCUUCCAGCUGAUGUGUCUTT; antisense AGACACAUCAGCUGGAAGATT; sugars from the 5' end r19 d2, backbone not given here) |  |  |  |  |  |  | decreased | activated | expression of a majority of LSD1 target genes (microarray) ([3]; 3T3-L1 cells, RFK knock-down, 24 hours differentiation induction): induced
